The values below come from ChEMBL document CHEMBL5465560, “Selectivity Literature for EUbOPEN Chemogenomic Library” (2024).

Assay [1] deals with Vascular endothelial growth factor receptor 2 (Homo sapiens, UniProt P35968). In words: Selectivity interaction (KinomeScan (DiscoverX)) EUB0001079a KDR. The conditions noted are these: at 1 µM.
Assay [2] deals with Calcium/calmodulin-dependent protein kinase type II subunit beta (Homo sapiens) (UniProt Q13554). Briefly: Selectivity interaction (Kinase panel (Invitrogen)) EUB0000639a CAMK2B. The conditions noted are these: at 200 nM.
Chain of Calcium/calmodulin-dependent protein kinase type II subunit beta (Homo sapiens) (Q13554 whole entry): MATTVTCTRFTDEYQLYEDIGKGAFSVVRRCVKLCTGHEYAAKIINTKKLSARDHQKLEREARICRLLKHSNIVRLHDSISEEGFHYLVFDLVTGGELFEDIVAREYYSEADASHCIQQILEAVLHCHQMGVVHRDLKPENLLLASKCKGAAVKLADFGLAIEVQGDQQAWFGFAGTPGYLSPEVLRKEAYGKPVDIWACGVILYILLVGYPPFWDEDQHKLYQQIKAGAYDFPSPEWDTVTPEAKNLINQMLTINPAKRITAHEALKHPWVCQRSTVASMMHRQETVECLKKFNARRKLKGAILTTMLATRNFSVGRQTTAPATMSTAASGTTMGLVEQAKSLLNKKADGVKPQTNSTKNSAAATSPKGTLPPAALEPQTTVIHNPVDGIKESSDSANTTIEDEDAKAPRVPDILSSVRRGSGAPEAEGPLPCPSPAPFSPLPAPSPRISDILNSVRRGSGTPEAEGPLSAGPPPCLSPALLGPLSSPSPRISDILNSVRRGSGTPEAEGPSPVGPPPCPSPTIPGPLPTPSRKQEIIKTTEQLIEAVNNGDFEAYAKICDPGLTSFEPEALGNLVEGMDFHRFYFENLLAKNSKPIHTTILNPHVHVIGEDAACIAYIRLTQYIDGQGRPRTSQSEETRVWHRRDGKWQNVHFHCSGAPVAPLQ
For assay [3], the target named is RAC-gamma serine/threonine-protein kinase (Homo sapiens, UniProt Q9Y243). In words: Selectivity interaction (Kinase panel (Invitrogen)) EUB0000639a AKT3. To be noted: at 200 nM.
Chain of RAC-gamma serine/threonine-protein kinase (Q9Y243 whole entry): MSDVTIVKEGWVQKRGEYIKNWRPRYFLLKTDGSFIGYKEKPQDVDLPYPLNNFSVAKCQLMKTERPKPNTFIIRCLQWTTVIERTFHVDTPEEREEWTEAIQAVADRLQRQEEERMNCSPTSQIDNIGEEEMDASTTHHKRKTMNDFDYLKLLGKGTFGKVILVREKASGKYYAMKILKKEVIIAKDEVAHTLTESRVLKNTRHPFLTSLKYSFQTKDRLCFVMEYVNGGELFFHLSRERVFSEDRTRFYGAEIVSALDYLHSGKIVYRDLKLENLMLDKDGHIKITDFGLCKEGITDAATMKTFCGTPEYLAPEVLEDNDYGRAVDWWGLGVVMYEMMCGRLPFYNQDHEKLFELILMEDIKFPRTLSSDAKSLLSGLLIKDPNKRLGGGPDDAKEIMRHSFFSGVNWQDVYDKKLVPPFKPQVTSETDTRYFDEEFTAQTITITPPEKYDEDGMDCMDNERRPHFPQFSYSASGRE
Assay [4] concerns the target Ribosomal protein S6 kinase alpha-3 (Homo sapiens, UniProt P51812). Briefly: Selectivity interaction (ActivX KiNativ screen (kinase selectivity in THP-1 cell lysates)) EUB0000639a RPS6KA3. The conditions noted are these: lysate, at 0.04 µM. The format is subcellular.
Assay [5] concerns the target Serine/threonine-protein kinase N2 (Homo sapiens, UniProt Q16513). Briefly: Selectivity interaction (KinomeScan (DiscoverX)) EUB0001049a PKN2. To be noted: at 1 µM.
Assay [6] has as its target Histone-lysine N-methyltransferase 2A (Homo sapiens) (UniProt Q03164). Briefly: Selectivity interaction (Bromodomain panel (DSF asssay)) EUB0000270b MLL.
Assay [7] deals with T1, Histone-lysine N-methyltransferase SETD7 (Homo sapiens) (UniProt Q8WTS6).
T1 sequence (whole entry): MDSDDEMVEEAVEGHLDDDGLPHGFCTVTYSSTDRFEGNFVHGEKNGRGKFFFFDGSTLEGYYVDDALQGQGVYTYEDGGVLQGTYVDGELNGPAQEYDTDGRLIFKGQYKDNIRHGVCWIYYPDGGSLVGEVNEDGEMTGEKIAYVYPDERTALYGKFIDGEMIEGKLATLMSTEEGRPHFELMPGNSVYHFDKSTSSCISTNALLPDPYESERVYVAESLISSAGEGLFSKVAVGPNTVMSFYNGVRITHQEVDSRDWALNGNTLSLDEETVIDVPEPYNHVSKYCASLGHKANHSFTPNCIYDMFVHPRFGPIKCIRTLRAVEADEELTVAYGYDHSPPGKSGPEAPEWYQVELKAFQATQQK
In words: Selectivity interaction (Transferase panel (protein, RNA, and DNA methyltransferases. and EP300 (acetyltransferase))) EUB0000270b SETD7.

For assay [8], the target named is Protein arginine N-methyltransferase 6 (Homo sapiens, UniProt Q96LA8). Briefly: Selectivity interaction (Transferase panel (protein, RNA, and DNA methyltransferases. and EP300 (acetyltransferase))) EUB0000270b PRMT6.
Chain of Protein arginine N-methyltransferase 6 (Q96LA8 whole entry, looked up): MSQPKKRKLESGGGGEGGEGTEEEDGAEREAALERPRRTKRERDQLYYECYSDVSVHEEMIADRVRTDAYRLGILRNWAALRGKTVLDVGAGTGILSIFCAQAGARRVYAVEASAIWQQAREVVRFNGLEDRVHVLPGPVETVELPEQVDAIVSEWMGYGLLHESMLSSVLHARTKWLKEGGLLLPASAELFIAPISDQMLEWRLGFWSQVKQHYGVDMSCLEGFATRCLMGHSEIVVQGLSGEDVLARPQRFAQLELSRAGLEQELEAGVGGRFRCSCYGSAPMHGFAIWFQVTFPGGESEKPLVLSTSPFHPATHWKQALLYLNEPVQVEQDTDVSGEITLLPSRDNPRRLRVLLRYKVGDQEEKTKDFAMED
Assay [9] concerns the target Serine/threonine-protein kinase 26 (Homo sapiens, UniProt Q9P289). Briefly: Selectivity interaction (KinomeScan (DiscoverX)) EUB0000092b STK26. To be noted: at 10 µM.
Assay [10] has as its system Tyrosine-protein kinase ABL1 (Homo sapiens), P00519 [F317L]. Briefly: (§1) Selectivity interaction (KinomeScan (DiscoverX)) EUB0000092b ABL1. To be noted: at 10 µM.
For assay [11], the system named is Tyrosine-protein kinase ABL1 (Homo sapiens), P00519 [M351T]. The description is as §1. The conditions noted are these: at 10 µM.
For assay [12], the system named is Tyrosine-protein kinase ABL1 (Homo sapiens), P00519 [T315I]. The description is as §1. To be noted: at 10 µM.
Assay [13] has as its system Tyrosine-protein kinase ABL1 (Homo sapiens), P00519 [Q252H]. The description is as §1. To be noted: at 10 µM.
For assay [14], the system named is Tyrosine-protein kinase ABL1 (Homo sapiens), P00519 [F317I]. Described as §1. The conditions noted are these: at 10 µM.
Assay [15] addresses Tyrosine-protein kinase ABL1 (Homo sapiens, UniProt P00519). The description is as §1. To be noted: at 10 µM.
Assay [16] concerns Tyrosine-protein kinase ABL1 (Homo sapiens), P00519 [H396P]. The assay is described as §1. To be noted: at 10 µM.
In assay [17] the target is T2, Testis-specific serine/threonine-protein kinase 1 (Homo sapiens) (UniProt Q9BXA7).
T2 sequence (whole entry): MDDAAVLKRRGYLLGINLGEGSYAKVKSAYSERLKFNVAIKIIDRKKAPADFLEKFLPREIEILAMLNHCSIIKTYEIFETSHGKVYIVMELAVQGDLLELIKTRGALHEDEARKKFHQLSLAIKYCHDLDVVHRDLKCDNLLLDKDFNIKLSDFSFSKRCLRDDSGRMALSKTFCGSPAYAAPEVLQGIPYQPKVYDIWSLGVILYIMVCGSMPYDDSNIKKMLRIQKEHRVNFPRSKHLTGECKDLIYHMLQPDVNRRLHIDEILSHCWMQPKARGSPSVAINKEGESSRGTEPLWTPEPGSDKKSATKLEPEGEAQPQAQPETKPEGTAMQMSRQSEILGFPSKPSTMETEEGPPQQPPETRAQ
Briefly: Selectivity interaction (Upstate Kinase Profiler service (Millipore)) EUB0000056c TSSK1A. To be noted: at 1 µM.

The target of assay [18] is MAP kinase-interacting serine/threonine-protein kinase 1 (Homo sapiens) (UniProt Q9BUB5). Briefly: Selectivity interaction (KinomeScan (DiscoverX)) EUB0000595a MKNK1. The conditions noted are these: at 10 µM.
Chain of MAP kinase-interacting serine/threonine-protein kinase 1 (Homo sapiens) (Q9BUB5 whole entry, looked up): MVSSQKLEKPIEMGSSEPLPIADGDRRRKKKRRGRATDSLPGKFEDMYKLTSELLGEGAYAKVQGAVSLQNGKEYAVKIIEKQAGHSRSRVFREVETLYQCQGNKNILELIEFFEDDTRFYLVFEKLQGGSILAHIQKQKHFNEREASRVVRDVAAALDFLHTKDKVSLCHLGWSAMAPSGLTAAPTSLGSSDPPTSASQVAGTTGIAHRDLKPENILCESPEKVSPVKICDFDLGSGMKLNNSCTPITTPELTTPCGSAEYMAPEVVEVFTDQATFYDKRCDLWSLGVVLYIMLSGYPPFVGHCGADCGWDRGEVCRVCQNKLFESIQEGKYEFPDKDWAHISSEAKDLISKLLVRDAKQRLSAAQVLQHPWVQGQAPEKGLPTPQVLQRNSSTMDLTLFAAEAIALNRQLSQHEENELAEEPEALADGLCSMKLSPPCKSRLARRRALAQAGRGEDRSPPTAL
In assay [19] the target is T3, Histone-arginine methyltransferase CARM1 (Homo sapiens) (UniProt Q86X55).
T3 sequence (whole entry): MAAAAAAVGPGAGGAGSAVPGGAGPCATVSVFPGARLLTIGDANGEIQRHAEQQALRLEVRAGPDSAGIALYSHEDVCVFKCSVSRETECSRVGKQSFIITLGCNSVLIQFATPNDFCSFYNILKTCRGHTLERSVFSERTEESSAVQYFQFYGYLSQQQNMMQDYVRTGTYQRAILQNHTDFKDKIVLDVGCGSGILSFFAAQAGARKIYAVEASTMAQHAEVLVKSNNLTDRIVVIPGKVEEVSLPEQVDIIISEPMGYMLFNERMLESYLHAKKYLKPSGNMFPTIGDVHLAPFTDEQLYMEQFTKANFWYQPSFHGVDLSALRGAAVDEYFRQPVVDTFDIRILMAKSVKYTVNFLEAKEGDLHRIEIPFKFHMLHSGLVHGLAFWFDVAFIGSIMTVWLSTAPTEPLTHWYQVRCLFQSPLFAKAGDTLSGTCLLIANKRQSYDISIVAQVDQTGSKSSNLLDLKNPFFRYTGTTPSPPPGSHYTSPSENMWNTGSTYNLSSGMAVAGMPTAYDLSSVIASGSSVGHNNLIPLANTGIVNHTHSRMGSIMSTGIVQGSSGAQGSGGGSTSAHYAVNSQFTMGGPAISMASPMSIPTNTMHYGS
Briefly: Selectivity interaction (Methyltransferase screen (radiometric assays, panel of 8 PRMTs, 21 protein lysine methyltransferases, 3 DNA methyltransferases, and one RNA methyltransferase)) EUB0000272b CARM1.

Assay [20] deals with Histone-lysine N-methyltransferase PRDM9 (Homo sapiens) (UniProt Q9NQV7). Briefly: Selectivity interaction (Methyltransferase screen (radiometric assays, panel of 8 PRMTs, 21 protein lysine methyltransferases, 3 DNA methyltransferases, and one RNA methyltransferase)) EUB0000272b PRDM9.
Chain of Histone-lysine N-methyltransferase PRDM9 (Homo sapiens) (Q9NQV7 whole entry): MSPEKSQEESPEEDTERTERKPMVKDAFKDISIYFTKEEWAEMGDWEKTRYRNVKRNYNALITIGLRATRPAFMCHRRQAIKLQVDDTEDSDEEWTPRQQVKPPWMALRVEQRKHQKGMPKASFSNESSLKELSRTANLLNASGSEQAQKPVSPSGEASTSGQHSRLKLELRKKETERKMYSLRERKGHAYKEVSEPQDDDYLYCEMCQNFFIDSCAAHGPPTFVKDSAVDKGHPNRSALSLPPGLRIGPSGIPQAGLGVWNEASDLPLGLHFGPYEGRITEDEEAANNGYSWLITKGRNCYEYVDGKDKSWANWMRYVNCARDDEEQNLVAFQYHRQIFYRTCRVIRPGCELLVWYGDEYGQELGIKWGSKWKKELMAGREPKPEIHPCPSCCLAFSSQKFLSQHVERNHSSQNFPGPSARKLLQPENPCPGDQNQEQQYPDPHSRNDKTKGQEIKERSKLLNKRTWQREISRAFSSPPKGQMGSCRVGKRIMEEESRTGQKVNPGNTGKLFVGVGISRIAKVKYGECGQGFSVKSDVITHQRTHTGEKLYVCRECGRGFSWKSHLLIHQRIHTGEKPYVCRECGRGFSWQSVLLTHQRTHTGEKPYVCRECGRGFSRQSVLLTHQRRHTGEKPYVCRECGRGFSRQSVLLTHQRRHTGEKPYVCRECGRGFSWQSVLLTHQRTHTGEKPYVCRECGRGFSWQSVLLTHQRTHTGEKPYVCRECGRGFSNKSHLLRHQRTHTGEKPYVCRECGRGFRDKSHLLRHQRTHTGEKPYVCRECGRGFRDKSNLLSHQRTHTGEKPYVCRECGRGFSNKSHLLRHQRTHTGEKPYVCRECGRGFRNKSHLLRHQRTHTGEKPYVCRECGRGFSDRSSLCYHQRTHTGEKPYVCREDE

Chain of Serine/threonine-protein kinase 26 (Q9P289 2-416 limits assumed): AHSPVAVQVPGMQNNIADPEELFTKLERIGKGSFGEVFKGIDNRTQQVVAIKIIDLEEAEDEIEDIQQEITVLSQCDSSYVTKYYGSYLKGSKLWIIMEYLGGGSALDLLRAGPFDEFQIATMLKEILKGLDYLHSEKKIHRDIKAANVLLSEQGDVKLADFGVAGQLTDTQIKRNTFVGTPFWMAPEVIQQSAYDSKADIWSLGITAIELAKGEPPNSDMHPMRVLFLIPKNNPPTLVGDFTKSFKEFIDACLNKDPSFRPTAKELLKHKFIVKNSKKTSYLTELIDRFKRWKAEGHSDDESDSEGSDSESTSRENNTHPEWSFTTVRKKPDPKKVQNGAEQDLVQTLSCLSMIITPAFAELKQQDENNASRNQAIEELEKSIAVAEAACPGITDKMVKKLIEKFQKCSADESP
Chain of Vascular endothelial growth factor receptor 2 (P35968 whole entry): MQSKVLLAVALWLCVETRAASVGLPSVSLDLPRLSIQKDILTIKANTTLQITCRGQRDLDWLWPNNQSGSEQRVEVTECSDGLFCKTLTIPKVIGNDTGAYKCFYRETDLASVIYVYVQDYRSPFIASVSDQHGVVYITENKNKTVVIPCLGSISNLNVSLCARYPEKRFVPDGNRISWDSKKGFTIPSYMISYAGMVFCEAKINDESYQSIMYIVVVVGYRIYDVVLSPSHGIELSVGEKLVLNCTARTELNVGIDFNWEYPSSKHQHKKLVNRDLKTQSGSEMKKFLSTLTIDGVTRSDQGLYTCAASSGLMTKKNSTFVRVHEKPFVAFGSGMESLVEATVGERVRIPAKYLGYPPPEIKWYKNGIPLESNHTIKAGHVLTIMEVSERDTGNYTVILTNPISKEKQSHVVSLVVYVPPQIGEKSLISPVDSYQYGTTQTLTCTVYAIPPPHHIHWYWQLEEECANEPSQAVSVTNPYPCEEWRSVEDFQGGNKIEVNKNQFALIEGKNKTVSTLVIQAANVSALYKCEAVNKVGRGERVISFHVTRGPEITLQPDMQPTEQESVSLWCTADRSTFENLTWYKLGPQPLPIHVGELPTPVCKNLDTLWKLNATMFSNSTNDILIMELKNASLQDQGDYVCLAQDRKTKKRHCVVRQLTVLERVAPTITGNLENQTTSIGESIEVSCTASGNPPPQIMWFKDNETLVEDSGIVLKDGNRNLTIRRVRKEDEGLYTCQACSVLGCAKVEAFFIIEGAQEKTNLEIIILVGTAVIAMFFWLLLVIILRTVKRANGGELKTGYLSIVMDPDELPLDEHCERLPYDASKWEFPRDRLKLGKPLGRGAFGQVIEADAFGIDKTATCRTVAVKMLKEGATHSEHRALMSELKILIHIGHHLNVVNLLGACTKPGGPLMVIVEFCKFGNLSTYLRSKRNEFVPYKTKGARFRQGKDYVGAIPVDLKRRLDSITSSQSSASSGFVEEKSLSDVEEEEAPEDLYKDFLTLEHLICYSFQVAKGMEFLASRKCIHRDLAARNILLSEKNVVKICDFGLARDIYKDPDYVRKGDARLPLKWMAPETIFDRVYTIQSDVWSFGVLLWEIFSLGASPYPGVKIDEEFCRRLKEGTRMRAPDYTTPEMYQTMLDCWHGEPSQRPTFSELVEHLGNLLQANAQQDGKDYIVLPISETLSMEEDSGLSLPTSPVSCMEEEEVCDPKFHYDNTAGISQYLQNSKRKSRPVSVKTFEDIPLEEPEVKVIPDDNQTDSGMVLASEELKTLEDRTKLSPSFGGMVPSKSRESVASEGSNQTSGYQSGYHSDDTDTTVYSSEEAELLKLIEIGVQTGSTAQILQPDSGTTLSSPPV

For `Nc1cnc(N2CCc3cc(S(=O)(=O)Nc4c(F)cc(Cl)cc4F)cc(N4CCCC4=O)c32)nc1` [TP-020n], the % of control in assay [1] was found to be 81%.

As for `CC[C@@H]1[C@H](F)C(=O)N[C@@H]1COc1nccc2cc(C(N)=O)c(OC)cc12` [ZIMLOVISERTIB], the % of inhibition in [2] came to 10.8%; in assay [3] it was 1.08%; in [4] it was 2.8%.

`COc1cc(Nc2nc(C)cc(-c3cnn4nc(OC)ccc34)n2)cc(C(F)(F)F)c1` showed a % of control in assay [5] of 90%.

Turning to `Cc1cc(CN)cc(C)c1-c1ncn(C)c1-c1cncn1C`, in [6], the dTM is -1.04 K. Moreover, the % activity is > 90% in assay [7] (at 1 µM), > 80% in assay [7] (at 10 µM), > 90% in assay [8] (at 1 µM) and > 80% in assay [8] (at 10 µM).

On to `CCC(=O)N1CCN(c2ccc(-n3c(=O)ccc4cnc5ccc(-c6cnc7ccccc7c6)cc5c43)cc2C(F)(F)F)CC1`, for which the % of control was found to be 89% in assay [9]; 100% in assay [10]; 100% in assay [11]; 100% in [12]; 89% in [13]; 100% in assay [14]. For the same compound, the % of control in assay [15] came out at 60%; in assay [16], 68%.

Regarding `Cc1ccc(-c2ccc3c(ccc4sc5c(c43)NC[C@@H](C)NC5=O)n2)cn1`, the % of inhibition in assay [17] came out at 35%.

Take `COCC(=O)NC/C=C/c1ccc2ncnc(Nc3ccc(Oc4ccc(C)nc4)c(C)c3)c2c1` [CP-724714]: in assay [18], the % of control was determined as 100%.

Regarding `Cc1cc(C)cc([C@H]2c3cc(C)ccc3NC(=O)CN2C(=O)c2ccc(Br)s2)c1`, the % of activity in assay [19] (at 1 µM) stood at 102%; in assay [19] (at 10 µM) it was 96.7%; in [20] (at 1 µM) it was 98.7%; in assay [20] (at 10 µM), 96.3%.
